Test [1] concerns the target T1, KDM4E (Homo sapiens, UniProt B2RXH2).
T1 construct: made in house; host or cells: Escherichia coli
T1 sequence (B2RXH2 1-506): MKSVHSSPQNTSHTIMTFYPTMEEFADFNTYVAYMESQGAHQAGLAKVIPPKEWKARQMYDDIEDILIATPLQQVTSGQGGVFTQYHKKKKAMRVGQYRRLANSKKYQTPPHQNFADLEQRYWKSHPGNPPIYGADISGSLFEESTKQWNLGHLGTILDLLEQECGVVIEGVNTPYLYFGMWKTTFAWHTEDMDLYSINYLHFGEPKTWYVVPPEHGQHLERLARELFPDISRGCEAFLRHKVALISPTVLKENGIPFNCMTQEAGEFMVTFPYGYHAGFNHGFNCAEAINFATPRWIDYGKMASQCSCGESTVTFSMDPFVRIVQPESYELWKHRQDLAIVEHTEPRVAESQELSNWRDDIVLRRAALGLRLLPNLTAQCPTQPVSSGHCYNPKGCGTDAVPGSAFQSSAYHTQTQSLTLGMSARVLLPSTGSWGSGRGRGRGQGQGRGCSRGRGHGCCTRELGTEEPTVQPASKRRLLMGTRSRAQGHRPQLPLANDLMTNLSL
The test can be described thus: SPE-MS KDM4E inhibition assay (demethylation of H3 1–15 K9me3). Format: biochemical. To be noted: Table 2, 10.0 μM H3 1–15 K9me3, n = 2, mean ± SD. As to the method:
(§1) H3_1-15K9me3, histone 3 (H3), residues 1–15 with K9 of H3-bearing three methyl groups at the N^ε-position, K4 of H3 substituted by an alanine residue, and K14 of H3 by an isoleucine residue,[73] for KDM4E; and RPL27A, residues 31–49, for RIOX2 (Mina53).[44]
(§2) Cosubstrate/cofactor stock solutions [L-ascorbic acid/LAA: 50 mM in MQ-grade water; 2-oxoglutarate/2OG: 10 mM in MQ-grade water; ammonium iron(II) sulfate hexahydrate/FAS/(NH4)2Fe(SO4)2·6H2O: 400 mM in 20 mM HCl diluted to 1 mM in MQ-grade water] were freshly prepared from commercial solids (Sigma-Aldrich) on the day the assays were performed. The JMJD5,[42] PHD2,[70] FIH,[70] KDM4E,[72],[73] RIOX2,[44] and AspH[45] […] For JMJD5, PHD2, FIH, RIOX2, and AspH, substrate hydroxylation was monitored (+16 Da mass shift), while for the KDM4E substrate, demethylation was monitored (−14 Da mass shift) by SPE-MS.

The target of test [2] is T2, AspH (Homo sapiens, UniProt Q12797).
T2 construct: N-terminally His6-tagged AspH315–758; made in house; host or cells: Escherichia coli
T2 sequence (Q12797 315-758): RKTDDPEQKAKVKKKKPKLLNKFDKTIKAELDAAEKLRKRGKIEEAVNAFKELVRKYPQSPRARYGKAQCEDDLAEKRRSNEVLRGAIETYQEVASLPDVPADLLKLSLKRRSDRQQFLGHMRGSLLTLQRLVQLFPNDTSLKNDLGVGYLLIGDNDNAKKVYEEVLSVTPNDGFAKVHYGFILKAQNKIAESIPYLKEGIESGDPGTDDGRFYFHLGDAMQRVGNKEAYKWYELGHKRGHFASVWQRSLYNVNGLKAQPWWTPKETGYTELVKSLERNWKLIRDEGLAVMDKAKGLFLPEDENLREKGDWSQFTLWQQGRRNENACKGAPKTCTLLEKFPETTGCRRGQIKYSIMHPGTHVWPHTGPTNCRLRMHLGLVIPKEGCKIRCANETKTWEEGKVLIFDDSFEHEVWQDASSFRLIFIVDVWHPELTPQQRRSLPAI
The experiment in a line: SPE-MS AspH inhibition assay (hFX-CP101–119 hydroxylation). Format: biochemical. The settings on record: Table 2; His6-AspH315–758 0.05 μM, 1.0 μM hFX-CP101–119; n = 2, mean ± SD. The procedure:
as §1, §2

The target of another test is T3, PHD2 (Homo sapiens, UniProt Q9GZT9).
T3 construct: His6-PHD2_181–426; made in house; host or cells: Escherichia coli
T3 sequence (Q9GZT9 181-426): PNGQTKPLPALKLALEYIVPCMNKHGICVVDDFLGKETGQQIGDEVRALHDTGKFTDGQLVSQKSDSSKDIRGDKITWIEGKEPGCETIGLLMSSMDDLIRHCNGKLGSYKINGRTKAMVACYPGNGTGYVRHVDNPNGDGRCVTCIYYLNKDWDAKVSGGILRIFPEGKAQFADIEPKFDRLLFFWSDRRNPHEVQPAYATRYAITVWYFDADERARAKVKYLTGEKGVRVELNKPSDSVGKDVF
The test can be described thus: SPE-MS PHD2 inhibition assay (HIF-1α CODD hydroxylation). Format: biochemical. The settings on record: Table 2; PHD2 181–426 […], 5.0 μM HIF-1α CODD; n = 2, mean ± SD. As to the method:
as §1, §2

The next test addresses T4, RIOX2 (Homo sapiens, UniProt Q8IUF8).
T4 construct: N-terminally His6-tagged RIOX2_26–465; made in house; host or cells: Escherichia coli
The experiment in a line: SPE-MS RIOX2 inhibition assay (RPL27A31–49 hydroxylation). Format: biochemical. The settings on record: Table 2; His6-RIOX2 26–465 […], 5.0 μM RPL27A31–49; n = 2, mean ± SD.

The next test concerns the target human JMJD5 (Homo sapiens, UniProt Q8N371). The test can be described thus: SPE-MS JMJD5 inhibition assay (hydroxylation of RPS6 128–148 peptide). Format: biochemical. The text has this: Synthetic peptides with sequences based on reported human 2OG oxygenase substrates were used in SPE-MS inhibition assays: RPS6, residues 128–148, for JMJD5;[42] HIF-α CODD, residues 558–574, for PHD2;[70] HIF-α CAD, residues 788–822, for FIH;[70] H3_1-15K9me3, histone 3 (H3), residues 1–15 with K9 of H3-bearing three methyl groups at the N^ε-position, K4 of H3 substituted by an alanine residue, and K14 of H3 by an isoleucine residue,[73] for KDM4E; and RPL27A, residues 31–49, for RIOX2 (Mina53).[44] All peptides were prepared as C-terminal amides by GL Biochem (Shanghai) Ltd. A synthetic thioether-linked cyclic peptide, hFX-CP101–119,[48] which was designed based on the reported cellular AspH substrate human coagulation factor X (hFX, residues 101–119; C101 was substituted for a D-alanine residue and C112 for a serine residue),[79] was used as AspH substrate; it was prepared with a C-terminal amide according to literature protocols.[80]
Cosubstrate/cofactor stock solutions [L-ascorbic acid/LAA: 50 mM in MQ-grade water; 2-oxoglutarate/2OG: 10 mM in MQ-grade water; ammonium iron(II) sulfate hexahydrate/FAS/(NH4)2Fe(SO4)2·6H2O: 400 mM in 20 mM HCl diluted to 1 mM in MQ-grade water] were freshly prepared from commercial solids (Sigma-Aldrich) on the day the assays were performed. The JMJD5,[42] PHD2,[70] FIH,[70] KDM4E,[72],[73] RIOX2,[44] and AspH[45] SPE-MS inhibition assays were performed as described in the cited literature, using isolated recombinant human enzymes (His6-thioredoxin-JMJD5,[42] His6-PHD2_181–426,[70] His6-FIH,[70] His6-KDM4E,[72],[73] His6-RIOX2_26–465,[87],[88] and His6-AspH315–758[48],[80]) and synthetic peptide substrates (RPS6_128–148 for JMJD5;[42] HIF-α CODD558–574 for PHD2;[70] HIF-α CAD788–822 for FIH;[70] H3_1–15K9me3 for KDM4E;[73] RPL27A31–49 for RIOX2;[44],[71] and hFX-CP101–119 for AspH;[45],[48] see above). For JMJD5, PHD2, FIH, RIOX2, and AspH, substrate hydroxylation was monitored (+16 Da mass shift), while for the KDM4E substrate, demethylation was monitored (−14 Da mass shift) by SPE-MS.

Test [3] has as its target T2, AspH. To be noted: cited from earlier work; for IC50 AspH: Supporting Table S1, reported SPE-MS value, ref SI 18.
For test [4], the target named is T1, KDM4E. To be noted: Supporting Table S1; reported FDH-coupled spectrophotometric assay; ref SI 17; cited from earlier work.
Test [5] deals with T1, KDM4E. The settings on record: cited from earlier work.
Setting [6] is: Supporting Table S1, JMJD5 […], 2OG 2.0 μM, RPS6 128-148 2.0 μM, pH 7.5, 20 °C, n = 3, mean ± SD, read-out: IC50 JMJD5.
Setting [7] is: supplementary CSV, read-out: IC50 JMJD5.
Where [8] appears, read: Table 1, JMJD5 […], 2OG 2.0 μM, Fe(II) 2.0 μM, LAA 100 μM, RPS6 128–148 2.0 μM, pH 7.5, 20 °C, n = 3, mean ± SD, read-out: IC50 JMJD5.
[9] abbreviates: isolated recombinant JMJD5, SPE-MS.
Setting [10] is: isolated recombinant JMJD5, SPE-MS, approximate values, read-out: IC50 for JMJD5 inhibition.
The mark [11] stands for this setting: Table 2, JMJD5 […], 2OG 2.0 μM, Fe(II) 2.0 μM, LAA 100 μM, RPS6 128–148 2.0 μM, n = 3, mean ± SD, read-out: IC50 JMJD5.

“Also recorded” adds a separate entry of the source. Where two headings read alike, the source gives them in different places.

Sequence of human JMJD5 (Q8N371 whole entry, the tested form may be a part): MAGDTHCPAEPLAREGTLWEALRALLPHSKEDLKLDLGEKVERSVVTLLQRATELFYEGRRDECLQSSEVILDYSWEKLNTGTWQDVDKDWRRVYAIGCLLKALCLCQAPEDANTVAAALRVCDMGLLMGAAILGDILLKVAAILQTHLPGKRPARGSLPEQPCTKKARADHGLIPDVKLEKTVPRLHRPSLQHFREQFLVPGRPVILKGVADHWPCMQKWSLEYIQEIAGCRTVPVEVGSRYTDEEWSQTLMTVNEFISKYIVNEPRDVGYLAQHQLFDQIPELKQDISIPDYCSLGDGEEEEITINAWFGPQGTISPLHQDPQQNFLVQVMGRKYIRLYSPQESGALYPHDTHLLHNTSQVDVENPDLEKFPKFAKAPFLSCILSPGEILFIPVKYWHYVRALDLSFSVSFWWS
T4 sequence (Q8IUF8 26-465): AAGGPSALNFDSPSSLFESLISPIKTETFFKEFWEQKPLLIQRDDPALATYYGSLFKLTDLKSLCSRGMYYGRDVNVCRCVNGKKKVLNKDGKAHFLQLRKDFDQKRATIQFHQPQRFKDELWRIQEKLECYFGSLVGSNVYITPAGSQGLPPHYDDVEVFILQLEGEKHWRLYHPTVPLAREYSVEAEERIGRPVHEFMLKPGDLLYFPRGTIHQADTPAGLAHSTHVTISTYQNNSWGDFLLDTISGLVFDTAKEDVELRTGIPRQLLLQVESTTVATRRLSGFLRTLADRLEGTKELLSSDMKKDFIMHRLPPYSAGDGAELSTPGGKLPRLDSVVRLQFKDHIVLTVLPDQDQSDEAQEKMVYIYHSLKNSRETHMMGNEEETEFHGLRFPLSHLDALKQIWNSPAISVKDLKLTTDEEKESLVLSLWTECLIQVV
Description for RIOX2: Cosubstrate/cofactor stock solutions [L-ascorbic acid/LAA: 50 mM in MQ-grade water; 2-oxoglutarate/2OG: 10 mM in MQ-grade water; ammonium iron(II) sulfate hexahydrate/FAS/(NH4)2Fe(SO4)2·6H2O: 400 mM in 20 mM HCl diluted to 1 mM in MQ-grade water] were freshly prepared from commercial solids (Sigma-Aldrich) on the day the assays were performed. […] For JMJD5, PHD2, FIH, RIOX2, and AspH, substrate hydroxylation was monitored (+16 Da mass shift), while for the KDM4E substrate, demethylation was monitored (−14 Da mass shift) by SPE-MS.

As a reminder, the IC50 is the concentration needed to halve the response being measured. For the molecule `COc1ccccc1CNc1cnc(C(=O)O)cc1C(=O)O` [Compound 20i, 5-((2-methoxybenzyl)amino)pyridine-2,4-dicarboxylic acid], the IC50 was 11.3 ± 2.9 µM against KDM4E [1], 0.9 ± 0.2 µM against AspH [2], above 50 µM against PHD2 and above 50 µM at RIOX2.

On to `O=C(O)c1ccc(Nc2c(C(=O)O)ccnc2C(=O)O)cc1` [Compound 22], for which the IC50 on human JMJD5 (setting [6]) was above 50 µM; at human JMJD5 (setting [7]), above 50 µM; on KDM4E [4], 66 µM. Moreover, at AspH [3], the “IC50 AspH” value is “inactive”.

In the case of `O=C(O)c1cc(C(=O)O)c(C(F)(F)F)cn1` [Compound 16, 5-trifluoromethyl-2,4-PDCA], the IC50 at human JMJD5 (setting [8]) and on human JMJD5 (setting [10]) was above 50 µM in each case. For the same molecule, the “JMJD5 inhibition (in words)” value on human JMJD5 (setting [9]) was “did not efficiently inhibit JMJD5; also recorded: does not inhibit JMJD5”. Besides, the “KDM4E inhibition (in words)” value at KDM4E [5] is “not to inhibit KDM4E”.

In the case of `Cc1ccccc1Nc1c(C(=O)O)ccnc1C(=O)O` [Compound 26], the half-inhibitory concentration (IC50) on human JMJD5 (setting [6]) was above 50 µM; at human JMJD5 (setting [7]), above 50 µM; on KDM4E [4], 41 µM.

Consider `O=C(O)c1cc(C(=O)O)c(NCC2CCCCC2)cn1` [Compound 20f], for which the IC50 on KDM4E [1] was 3.2 ± 0.3 µM; against AspH [2] it was 2.6 ± 0.6 µM; on PHD2, above 50 µM; on RIOX2, 34 ± 8.5 µM.

Consider `COc1ccc(CNc2cnc(C(=O)O)cc2C(=O)O)cc1` [Compound 20h, 5-((4-methoxybenzyl)amino)pyridine-2,4-dicarboxylic acid], for which the IC50 is 15.5 ± 1.9 µM on KDM4E [1], 2 ± 0.4 µM on AspH [2], above 50 µM at PHD2 and 27.6 ± 7.1 µM on RIOX2.

Turning to `O=C(O)c1cc(C(=O)O)c(NCCc2ccccc2)cn1` [Compound 20b], the IC50 is 0.9 ± 0.2 µM on human JMJD5 (setting [11]); 5.9 ± 0.6 µM against KDM4E [1]; 1.8 ± 0.1 µM against AspH [2]; above 50 µM at PHD2; 27.9 ± 6.7 µM against RIOX2.

Take `O=C(O)c1ccnc(C(=O)O)c1Nc1ccccc1` [Compound 21]: the IC50 was above 50 µM on human JMJD5 (setting [6]), above 50 µM at human JMJD5 (setting [7]) and 19 µM on KDM4E [4].

Consider `CSc1ccccc1Nc1c(C(=O)O)ccnc1C(=O)O` [Compound 28], for which the results for the IC50 on human JMJD5 (setting [6]), at human JMJD5 (setting [7]) and on KDM4E [4] were 41.5 ± 2.2 µM, 41.5 ± 2.2 µM and 48 µM, respectively.

Take `O=C(O)c1ccnc(C(=O)O)c1C(F)(F)F` [Compound 14, 3-trifluoromethyl-2,4-PDCA]: the IC50 on human JMJD5 (setting [8]) and at human JMJD5 (setting [10]) was above 50 µM throughout. For the same molecule, on human JMJD5 (setting [9]), the “JMJD5 inhibition (in words)” value is “did not efficiently inhibit JMJD5”. Also, the “KDM4E inhibition (in words)” value on KDM4E [5] is “not to inhibit KDM4E”. For the same molecule, the “AspH inhibition (in words)” value at AspH [3] (isolated recombinant AspH) was “does not inhibit”.

As for `O=C(O)c1cc(C(=O)O)c(NCCCc2ccccc2)cn1` [Compound 20c], the IC50 at human JMJD5 (setting [11]) was 0.3 ± 0.1 µM; at KDM4E [1], 28.2 ± 4.1 µM; against AspH [2], 2.8 ± 0.4 µM; on PHD2 it was above 50 µM; on RIOX2 it was 27.3 ± 6.7 µM.

Consider `O=C(O)c1ccccc1Nc1c(C(=O)O)ccnc1C(=O)O` [Compound 24], for which the IC50 on human JMJD5 (setting [6]) is above 50 µM; at human JMJD5 (setting [7]) it was above 50 µM; on KDM4E [4], 166 µM.

Take `O=C(O)c1ccnc(C(=O)O)c1Nc1ccc([N+](=O)[O-])cc1` [Compound 23]: the IC50 was above 50 µM at human JMJD5 (setting [6]), above 50 µM on human JMJD5 (setting [7]) and 95 µM on KDM4E [4]. Further, on AspH [3], the “IC50 AspH” value is “inactive”.

Source of the values: article PMC10424186 (Journal of Medicinal Chemistry, 2023).
